These results are taken from patent US11571418B2, “Platinum compounds that inhibit constitutive STAT3 signaling and induce cell cycle arrest and apoptosis of malignant cells” (H. LEE MOFFITT CANCER CENTER AND RESEARCH INSTITUTE, INC., priority 2011, dated 2023).

SMILES strings stand for the structures.

For one assay, the target named is T1, Stat3 (Mus musculus, UniProt P42227).
T1 construct: Nuclear extract preparation from NIH3T3 stimulated by rhIL-6, NIH3T3/hEGFR stimulated by rhEGF; endogenous in cells; host or cells: NIH3T3/hEGFR fibroblasts stimulated with rhEGF (nuclear extract)
Description: In vitro Stat3 DNA-binding activity assay, EMSA with hSIE probe. The method, then: (§1) FIGS. 1A-1E. Inhibition of in vitro Stat3 DNA-binding activity by a platinum complex. Nuclear extracts or cell lysates containing activated Stat1, Stat3 and Stat5, or E2F1 prepared from NIH3T3/hEGFR that are stimulated with EGF or Sf-9 insect cells that are infected with baculovirus expressing Stat1, Stat3, Stat5, or E2F1, respectively, were treated with or without the indicated concentrations of platinum complex, PLATINUM-401 or Cisplatin, for 30 min at room temperature prior to incubation with radiolabeled oligonucleotide probes, and subjected to EMSA analysis. (FIG. 1A) (i) Stat1 and Stat3 binding activities to hSIE probe, (ii) Stat1 and Stat5 binding activities to MGFe probe, and (iii) plot of % oligonucleotide probe-STAT:STAT complexes versus concentration of PLATINUM-401. […] Positions of STAT: STAT-DNA complexes in gel are labeled. In (A) to (C), the control lanes represent DMSO (vehicle)-treatment.
Nuclear extract preparation and gel shift assays—Nuclear extract preparation from NIH3T3 stimulated by rhIL-6, NIH3T3/hEGFR stimulated by rhEGF, v-Src-transformed fibroblasts (NIH3T3/v-Src) or tumor cell lines and electrophoretic mobility shift assay were carried out as previously described (Turkson et al., 1998; Garcia et al., 1997; Yu et al., 1995). The ^32P-labeled oligonucleotide probes used are hSIE (high affinity sis-inducible element from the c-fos gene, m67 variant, 5′-[…]) (SEQ ID NO:1) that binds Stat1 and Stat3 (Garcia et al., 1997; Wagner et al., 1990) and MGFe (mammary gland factor element from the bovine β-casein gene promoter, 5′-AGATTTCTAGGAATTCAA) (SEQ ID NO:2) for Stat1 and Stat5 binding (49,50). Except where indicated, inhibitor compound was pre-incubated with the nuclear extract for 30 min at room temperature prior to incubation with radiolabeled probe.
Compounds from the NCI 2000 diversity set were screened for inhibition of Stat3 signaling in an in vitro DNA-binding activity assay based on analysis by electrophoretic mobility shift assay (EMSA). A platinum (IV) complex, PLATINUM-401 (NSC 295558) (FIG. 1E), was identified as a potent inhibitor of Stat3 and was further characterized for its anti-Stat3 properties. In the in vitro DNA-binding activity assay, nuclear extracts of equal total protein containing active Stat1, Stat3 and Stat5 were pre-incubated with different concentrations of PLATINUM-401 for 30 min prior to incubation with a [^32P]-labeled oligonucleotide, the m67 high affinity sis-inducible element (hSIE) probe that binds Stat1 and Stat3, or the mammary gland factor element (MGFe) that binds Stat1 and Stat5. Samples were then subjected to EMSA.

Another assay has as its system Stat5. Description: In vitro Stat5 DNA-binding activity assay, EMSA with MGFe probe. Set-up: species or system mouse. As to conditions: pre-incubated 30 min before MGFe probe. The method, then:
as §1
Nuclear extract preparation and gel shift assays—Nuclear extract preparation from NIH3T3 stimulated by rhIL-6, NIH3T3/hEGFR stimulated by rhEGF, v-Src-transformed fibroblasts (NIH3T3/v-Src) or tumor cell lines and electrophoretic mobility shift assay were carried out as previously described (Turkson et al., 1998; Garcia et al., 1997; Yu et al., 1995). […]

The target in another assay is T2, E2F1 (Homo sapiens, UniProt Q01094).
T2 construct: made in house; host or cells: Sf-9 insect cells infected with baculovirus
Description: Non-STAT protein added to activated Stat3 before EMSA (titration of compound). It counts as binding.

Another assay deals with NIH3T3/v-Ras fibroblasts. Description: Soft-agar colony formation assay. In kind it is cell-based, mouse. Particulars: treated every 2-3 days until large colonies evident. The procedure: (§2) FIG. 4. Abrogation of Stat3-dependent viral Src transformation. Viral Src-transformed fibroblasts (NIH3T3/v-Src) and their Ras-transformed counterparts (NIH3T3/v-Ras) were seeded in soft agar and growing cells were treated every 2-3 days with or without the indicated concentrations of PLATINUM-401 until large colonies were evident. Number of colonies of cells in soft agar were counted and expressed as % of control (non-treated) cells. Values are the mean and S.D. of the three independent assays.
(§3) Soft-agar colony formation assays—Colony formation assays were carried out in six-well dishes as previously described (Turkson et al., 1999). In brief, each well contained 1.5 ml of 1% agarose in DMEM as the bottom layer, and 1.5 ml of 0.5% agarose in DMEM containing 4000 or 6000 NIH3T3/v-Src or NIH3T3/v-Ras fibroblasts, respectively, as the top layer. Treatment with PLATINUM-401 was initiated 1 day after seeding cells by adding 75-100 μl of medium with or without compound, and repeated every three days, until large colonies were evident. Colonies were quantified by staining with 20 μl of 1 mg/ml iodonitrotetrazolium violet, incubating at 37° C. overnight and counting the next day.
(§4) PLATINUM-401 was next evaluated for effects on Stat3-mediated v-Src transformation (Turkson et al., 1998; Bromberg et al., 1998; Turkson et al., 1999).

The subject of the next assay is NIH3T3/v-Src fibroblasts. Description: Soft-agar colony formation assay. In kind it is cell-based, mouse. As to conditions: treated every 2-3 days until large colonies evident. The procedure:
as §2, §3, §4

For another assay, the system named is Cyclin D1. Description: Cyclin D1 detection, in situ and Western blot. It counts as cell-based, mouse. As to conditions: NIH3T3/v-Src, 48 h. The procedure:
FIGS. 8A and 8B. Inhibition of Cyclin D1 and Bcl-xL induction by PLATINUM-401. Viral Src-transformed fibroblasts (NIH3T3/v-Src) and human breast cancer cell line MDA-MB-435 that contain constitutively-activated Stat3 were treated with or without platinum complex for 48 h. Cells were processed for immunohistochemistry, or cell lysates were prepared from cells and subjected to 5% PAGE and Western blot analysis, as indicated in “Materials and Methods.” (FIG. 8A) Detection of Cyclin D1; (FIG. 8B) Detection of Bcl-xL. Positions of Cyclin D1 and Bcl-xL proteins are shown. Beta-actin levels are shown for normalizing for equal total protein. Data are representative of 3 independent determinations.
Western blot—Whole-cell lysates were prepared in boiling sodium dodecyl sulfate (SDS) sample-loading buffer to extract total proteins from the cytoplasm and nucleus. Equivalent amounts of total cellular protein were electrophoresed on an SDS-10% polyacrylamide gel and transferred onto nitrocellulose membranes. Probing of nitrocellulose membranes with primary antibodies and detection of horseradish peroxidase-conjugated secondary antibodies by enhanced chemiluminescence (Amersham, Piscataway, N.J.) were performed as previously described (Garcia et al., 2001; Turkson et al., 2004b; Zhang et al., 2000). […]

T1 sequence (P42227 2-770 limits assumed): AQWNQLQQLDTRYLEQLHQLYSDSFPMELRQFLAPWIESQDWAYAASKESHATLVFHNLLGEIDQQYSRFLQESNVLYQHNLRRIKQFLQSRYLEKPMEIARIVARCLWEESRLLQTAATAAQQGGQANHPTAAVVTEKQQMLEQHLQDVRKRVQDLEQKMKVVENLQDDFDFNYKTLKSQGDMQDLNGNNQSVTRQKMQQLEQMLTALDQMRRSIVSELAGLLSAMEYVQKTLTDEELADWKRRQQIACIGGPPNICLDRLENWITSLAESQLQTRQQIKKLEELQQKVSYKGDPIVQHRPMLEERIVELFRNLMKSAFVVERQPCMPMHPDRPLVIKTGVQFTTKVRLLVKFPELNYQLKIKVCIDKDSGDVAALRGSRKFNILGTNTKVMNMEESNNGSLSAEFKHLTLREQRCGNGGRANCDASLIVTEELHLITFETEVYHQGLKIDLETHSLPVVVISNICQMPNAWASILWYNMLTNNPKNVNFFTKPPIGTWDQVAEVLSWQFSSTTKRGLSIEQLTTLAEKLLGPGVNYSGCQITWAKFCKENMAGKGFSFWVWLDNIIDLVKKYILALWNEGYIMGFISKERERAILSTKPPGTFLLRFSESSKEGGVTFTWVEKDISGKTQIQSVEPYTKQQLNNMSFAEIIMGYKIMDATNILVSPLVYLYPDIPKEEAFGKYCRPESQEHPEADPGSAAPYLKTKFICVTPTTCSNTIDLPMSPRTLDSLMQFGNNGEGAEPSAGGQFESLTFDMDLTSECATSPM
T2 sequence (Q01094 whole entry, species assumed): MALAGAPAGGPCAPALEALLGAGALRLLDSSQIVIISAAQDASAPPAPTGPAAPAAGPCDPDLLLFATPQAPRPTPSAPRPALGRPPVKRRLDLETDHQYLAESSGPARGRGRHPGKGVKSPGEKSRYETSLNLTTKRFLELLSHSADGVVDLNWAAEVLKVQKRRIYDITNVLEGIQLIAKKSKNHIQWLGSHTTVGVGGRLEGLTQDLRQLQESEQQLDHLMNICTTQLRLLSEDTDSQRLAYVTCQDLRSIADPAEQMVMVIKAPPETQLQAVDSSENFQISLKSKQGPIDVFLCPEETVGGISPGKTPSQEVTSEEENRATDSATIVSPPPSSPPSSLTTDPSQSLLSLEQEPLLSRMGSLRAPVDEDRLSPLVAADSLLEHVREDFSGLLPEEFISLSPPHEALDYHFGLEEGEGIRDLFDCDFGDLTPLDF

At Stat3, `CC(O)CN1CCN(CC(C)O)CC1` (stereo not drawn) [PLATINUM-401] returned an IC50 of 1400 nM. Also, the “effect on Stat3 DNA-binding activity at low protein amount” value at Stat3 (1 μg protein) is “strong and a dose-dependent decrease”. For the same compound, on Stat3 (0.3-2 μM compound, varied hSIE probe), the “type of inhibition of Stat3 DNA-binding activity (Lineweaver-Burke plot)” value is recorded as “non-competitive”. Also, the “effect on Stat3 DNA-binding activity at higher protein levels” value at Stat3 (2-3 μg protein) is given as “diminished effect”. At Stat3 (Stat3 incubated with hSIE probe 30 min, then compound 3-30 min), the “effect on Stat3 DNA-binding activity when protein is first bound to DNA” value is “fails to disrupt”. For the same compound, the “effect on DNA-binding activity of Stat3:Stat3 homodimer” value at Stat3 (pre-incubated 30 min before hSIE probe) was “dose-dependent reduction”. Besides, the “effect on Stat3 DNA-binding activity on simultaneous addition of compound and hSIE probe” value at Stat3 (simultaneous addition, data not shown) is recorded as “inhibition”. Besides, the “effect on DNA-binding activity of Stat5:Stat5 dimer” value in the assay with Stat5 is listed as “does not significantly affect”. Moreover, the “influence of E2F1 protein on compound's effect on Stat3 DNA-binding activity” value at E2F1 is given as “failed to significantly influence”. Besides, the entries for the “growth in soft agar” value in the assay with NIH3T3/v-Ras fibroblasts and in the assay on NIH3T3/v-Src fibroblasts were “only partially inhibits growth” and “strongly suppresses growth”, respectively. Also, the “Cyclin D1 level” value in the assay with Cyclin D1 is recorded as “significantly diminished”.
